Results on 15 molecules are retold here after patent US9944589B2, “Cycloproplyamine derivatives useful as inhibitors of histone demethylases KDM1A” (Istituto Europeo de Oncologia S.r.L., priority 2012, dated 2018).

Where a name gives a salt, the structure may show the parent alone.

One test has as its target T1, Human recombinant MAO B (Homo sapiens, UniProt P27338).
T1 sequence (P27338 1-520): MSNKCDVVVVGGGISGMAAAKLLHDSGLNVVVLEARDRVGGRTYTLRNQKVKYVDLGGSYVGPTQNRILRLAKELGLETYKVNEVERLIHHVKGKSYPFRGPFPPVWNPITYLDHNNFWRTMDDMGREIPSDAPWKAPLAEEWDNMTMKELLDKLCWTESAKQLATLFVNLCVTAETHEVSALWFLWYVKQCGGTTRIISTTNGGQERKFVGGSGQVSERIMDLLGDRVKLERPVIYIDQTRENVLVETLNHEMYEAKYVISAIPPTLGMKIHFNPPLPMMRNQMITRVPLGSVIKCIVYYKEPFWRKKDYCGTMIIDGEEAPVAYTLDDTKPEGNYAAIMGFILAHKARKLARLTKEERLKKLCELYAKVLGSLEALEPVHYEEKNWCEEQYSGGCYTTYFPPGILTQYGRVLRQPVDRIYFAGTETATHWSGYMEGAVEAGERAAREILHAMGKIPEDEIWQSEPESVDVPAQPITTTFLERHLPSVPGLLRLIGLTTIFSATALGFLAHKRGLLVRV
As to conditions: ratio of IC50 against MAO-B over IC50 for LSD1.

The subject of test [1] is mouse model of leukemia resembling the human acute promyelocytic leukemia. Kind of test: In vivo activity, mouse leukemia model, splenomegaly as read out of blast infiltration. Conditions: orally, 30 mg/kg, 4 days, leukemic mice. Here is the method:
The in vivo activity was conducted on a mouse model as characterized by Minucci et al. (Minucci S. et al. Blood 2002, 100, 2989-2995) The model is characterized by the development of leukemia, resembling the human acute promyelocytic leukemia, which is associated to a blast infiltration of several organs as bone marrow, liver and particularly of the spleen. In the conducted experiment, splenomegaly was studied as read out of blast infiltration and development of leukemia.
For the in vivo analysis, one million of leukemic cells (obtained from 129SvEv mice, Minucci S. et al. Blood 2002, 100, 2989-2995, obtained from Taconic, One Hudson City Centre Hudson, N.Y. (USA)) were injected intravenously into non-irradiated syngenic recipients. Treatment started once blast cells are detected in the recipients' peripheral blood (9 days after injection). The compounds were intravenously or orally administered at doses of 10 and 30 mg/kg for 4 days. […] after blast injection the mice were sacrificed and the spleens recovered. The weights of the spleen of the mice of the vehicle groups as well as of the treated groups were registered and used as evidence of effect on blast infiltration. […]
Compound A-36 administered orally at 30 mg/kg determined a reduction of the spleen weight of around 50% compared to mice treated with the vehicle (40% PEG-400, 60% aqueous solution containing 5% glucose) alone.

Test [2] concerns Acute promyelocytic leukemia NB4 cells. Kind of test: Cell growth (CellTiter-Fluor cell viability assay). The format is cell-based. As to conditions: Homo sapiens, NB-4, 48 h, range classes, read-out: IC50 [μM], cell growth inhibitory assay. An outline of the steps:
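Exponentially growing NB4 cells exposed to a range of inhibitor concentrations for 48 h. Viability then read as live-cell protease fluorescence (ex 360/em 535 nm) after ≥90 min reagent incubation at 37 °C; IC50 calculated from the data.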

Test [3] concerns the target T2, human recombinant KDM1A (LSD1)/CoRest (Homo sapiens, UniProt O60341).
T2 construct: made in house; host or cells: E. coli
The test can be described thus: Assay of enzyme inhibition of KDM1A (LSD1), Amplex UltraRed/peroxidase coupled. The format is biochemical. As to conditions: 15 min preincubation, 4.5 μM mono-methylated H3-K4 peptide, range classes, read-out: IC50 [μM], KDM1A inhibition assay. An outline of the steps:
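KDM1A/CoRest complex with inhibitor (e.g. 0–100 μM) and Amplex UltraRed/peroxidase preincubated 15 min at RT. Substrate: mono-methylated H3K4 21-mer peptide in 50 mM Tris pH 8, 0.05 mg/ml BSA, aerobic. IC50 from duplicates run twice, background-corrected.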

Method for Human recombinant MAO B: The MAO-Glo Assay from Promega (cat. V1402, Promega, Madison, Wis.) was used to measure the effect of inhibitors on MAO-A and MAO-B activity.
After 30 minutes of incubation the reaction was stopped with the Promega detection reagent. The experiments were carried out in duplicate. IC50 was calculated using GraphPad Prism version 4.0 (GraphPad Software, San Diego, Calif.).

One may read the IC50 as the concentration that gives 50% inhibition. As for `CC[C@@]1(N)C[C@H]1c1ccc(NC(=O)c2ccc(-c3ccccc3)cc2)cc1` (relative stereo) [Example A-36, N-[4-[(trans)-2-amino-2-ethyl-cyclopropyl]phenyl]-4-phenyl-benzamide hydrochloride], the “IC50 (MAO-B)/IC50 (LSD1)” value on Human recombinant MAO B turned out to be 16. In test [1], the “reduction of the spleen weight compared to mice treated with the vehicle” value is reported as “around 50%”. In test [2], the IC50 was at most 10 µM.
Regarding `CC[C@]1(N)C[C@@H]1c1ccc(NC(=O)c2ccccc2)cc1.Cl` (relative stereo) [Example A-47, N-[4-[trans-2-amino-2-ethyl-cyclopropyl]phenyl]benzamide hydrochloride], the “IC50 (MAO-B)/IC50 (LSD1)” value on Human recombinant MAO B is recorded as over 100. Besides, in test [3], the IC50 was under 0.1 µM.
As to `CC[C@@]1(N)C[C@H]1c1ccc(NC(=O)c2ccc(-c3ccoc3)cc2)cc1` (relative stereo) [Example A-78, N-[4-[trans-2-amino-2-ethyl-cyclopropyl]phenyl]-4-(3-furyl) benzamide hydrochloride], at Human recombinant MAO B, the “IC50 (MAO-B)/IC50 (LSD1)” value is on record as 60. The IC50 is under 0.1 µM in test [3] and at most 10 µM in test [2].
Regarding `CC[C@@]1(N)C[C@H]1c1ccc(NC(=O)c2cccc(N3CCOC3=O)c2)cc1` (relative stereo) [Example A-98, N-[4-[trans-2-amino-2-ethyl-cyclopropyl]phenyl]-3-(2-oxooazolidin-3-yl)benzamide 2,2,2-trifluoroacetic acid], at Human recombinant MAO B, the “IC50 (MAO-B)/IC50 (LSD1)” value was over 100. The results for the IC50 in test [3] and in test [2] were under 0.1 µM and at most 10 µM, respectively.
For `N[C@]1(CCc2ccccc2)C[C@H]1c1ccc(NC(=O)c2ccccc2)cc1` (relative stereo) [Example A-114, N-[4-trans-2-amino-2-phenethyl-cyclopropyl)phenyl] benzamide hydrochloride], the “IC50 (MAO-B)/IC50 (LSD1)” value on Human recombinant MAO B is reported as over 100. Besides, the IC50 in test [3] is under 0.1 µM; in test [2] it was at most 10 µM.
Consider `CN1CCN(c2ccc(C(=O)Nc3ccc([C@@H]4C[C@]4(N)CCc4ccccc4)cc3)cc2)CC1` (relative stereo) [Example A-116, N-[4-(trans-2-amino-2-phenethyl-cyclopropyl)phenyl]-4-(4-methylpiperazin-1-yl)benzamide dihydrochloride], for which, at Human recombinant MAO B, the “IC50 (MAO-B)/IC50 (LSD1)” value was over 100. The IC50 in test [3] was under 0.1 µM; in test [2], at most 10 µM.
Turning to `CC[C@@]1(N)C[C@H]1c1cccc(-n2cc(-c3ccccc3)nn2)c1` (relative stereo) [Example A-122, trans-1-ethyl-2-[3-(4-phenyltriazol-1-yl)phenyl]cyclopropan amine hydrochloride], the concentration for half-maximal inhibition (IC50) was in the range of 0.1 to 1 µM in test [3] and 10 to 50 µM in test [2].
Consider `N[C@]1(Cc2ccc3ccccc3c2)C[C@H]1c1ccc(-n2cc(-c3ccccc3)nn2)cc1` (relative stereo) [Example A-124, trans-1-(2-naphthylmethyl)-2-[4-(4-phenyltriazol-1-yl)phenyl]cyclopropan amine hydrochloride], for which the IC50 is 0.1 to 1 µM in test [3] and 10 to 50 µM in test [2].
With `N[C@]1(CNCc2ccccc2)C[C@H]1c1ccccc1` (relative stereo) [Example B-3, trans-1-(benzylamino)methyl-2-phenyl-cyclopropanamine dihydrochloride], the figures for the IC50 in test [3] and in test [2] were 1 to 5 µM and 50 to 100 µM, respectively.
As for `CN1CCN(C(=O)CN[C@]2(Cc3ccc4ccccc4c3)C[C@H]2c2ccccc2)CC1` (relative stereo) [Example C-24, 1-(4-methylpiperazin-1-yl)-2-[[trans-1-(2-naphthylmethyl)-2-phenyl-cyclopropyl]amino]ethanone dihydrochloride], the IC50 in test [3] fell in the range of 0.1 to 1 µM; in test [2], 10 to 50 µM.
On the same counts, the results for `N[C@]1(c2ccc([N+](=O)[O-])cc2)C[C@H]1c1ccccc1` (relative stereo) [Example D-3, trans-1-(4-nitrophenyl)-2-phenyl-cyclopropanamine hydrochloride] are 0.1 to 1 µM and 10 to 50 µM.
`N[C@]1(c2ccccc2)C[C@H]1c1ccc(Cl)cc1` (relative stereo) [Example D-4, trans-2-(4-chlorophenyl)-1-phenyl-cyclopropanamine hydrochloride]: the 50% inhibitory concentration (IC50) in test [3] was 0.1 to 1 µM; in test [2] it was 50 to 100 µM.
On the same counts, the results for `N[C@]1(c2ccccc2)C[C@H]1c1ccc(Br)cc1` (relative stereo) [Example D-5, trans-2-(4-bromophenyl)-1-phenyl-cyclopropanamine hydrochloride] are under 0.1 µM and 10 to 50 µM.
For the molecule `N[C@]1(Cc2ccc3ccccc3c2)C[C@H]1c1ccc(OCc2ccccc2)cc1` (stereo in doubt) [Example A-67, 2-(4-benzyloxyphenyl)-1-(2-naphthylmethyl) cyclopropanamine hydrochloride], the figures for the IC50 in test [3] and in test [2] were 0.1 to 1 µM and 10 to 50 µM, respectively.
For `N[C@]1(Cc2ccc3ccccc3c2)C[C@H]1c1ccc(NC(=O)c2ccccc2)cc1` [Example A-44, N-[4-[tyrans-2-amino-2-(2-naphthylmethyl)cyclopropyl]phenyl] benzamide hydrochloride], in that order: under 0.1 µM and at most 10 µM.
